From patent publication US20050267020A1, “Polypeptides derived from inducible hsp70 and pharmaceutical compositions containing the same” (priority 2001, published 2005)

Assays:
[1] = target: T1, HLA-A*0201/peptide complex (Homo sapiens, UniProt P04439, D140Y/D185E/D98H/E176V/E277Q/G131W/G231S/I119V/I121R/I166T/I218V/L300P/L318F/N151K/N90K/P208A/P217A/Q86G/Q94H/R138H/R169H/T345S); experiment: Assessment of peptide/HLA class I complex stability (DC50); assay type: binding; settings: half life (DC50) of the HLA-A*0201/peptide complex
T1 construct: Tap−/− cells expressing the studied HLA-class I molecule; endogenous in cells; host or cells: T2 cells (Tap-/-, HLA-A*0201)
Procedure: Assessment of Peptide/HLA class I Complex Stability. Tap−/− cells (10^6/mL) were incubated overnight with 100 μM of each peptide in serum-free RPMI 1640 medium supplemented with 100 ng/mL of […] at 37° C. Cells were then washed four times to remove free peptide, incubated with Brefeldin A (10 μg/mL) for 1 hour to block cell surface expression of newly synthesized HLA molecules, washed and incubated at 37° C. for 0, 2, 4 or 6 hours. Subsequently, cells were stained with the HLA specific mAb followed by FITC conjugated goat anti mouse Ig mAb. For each time point, peptide induced HLA expression was calculated as: Mean fluorescence of peptide preincubated cells—Mean fluorescence of cells treated in similar conditions in the absence of peptide. DC50 (dissociation complex; DC) was defined as the time required for the loss of 50% of the HLA-A*0201/peptide complexes stabilized at t=0.
The affinity of each peptide was assayed experimentally by determination of the Relative Affinity: the necessary peptide dose to stabilise a reference quantity of HLA-A*0201 molecules at the surface of T2 cells; and the stability of each peptide was assayed by determination of the half-life of the peptide/HLA-A*0201 molecule complex (DC50: dissociation complex 50).

human CD8+ cells = experiment: Generation of CTL from human PBMC with peptide- or polyepitope-pulsed dendritic cells, intracellular IFN-γ staining; assay type: cell-based; settings: CD8+ cells stimulated with peptide-loaded dendritic cells
Procedure: The three graphs entitled hCTL380, hCTL391 and hCTL393 represent respectively the testing of p380, p391 and p393-specific human CTLs. P391 and p393 specific CTLs were tested towards EBV-B cells, whereas p380 specific CTLs were tested towards T2 cells. The number of IFN-γ producing CD8+ cells for 10^5 CD8+ cells upon activation, indicated on the X-axis, was measured, as assessed by staining cells for CD8 and intracellular IFN-γ.
Polyepitope induced human CTL were tested for their capacity to respond to T2 cells loaded with p380, p391 or p393 or the irrelevant HIVpol589 peptides in intracellular IFN-γ staining. The X axis represents the number of IFNγ-producing CTL/10^5 CD8+ cells. On the Y axis, upper to lower bars represent the results obtained when cells were loaded respectively with irrelevant HIV pol589 peptides, or with p380, p391 or p393 peptides.
Generation of CTL from Human Peripheral Blood Mononuclear Cells (PBMC). Fresh PBMC collected from healthy donnors under informed consent were serologically typed for the studied HLA-class I molecule, and purified using standard Ficoll-Paque (Amersham Pharmacia Biotech AB). Dendritic cells (DC) were prepared by cultivating plastic adherent PBMC in the presence of 500 U/mL GM-CSF (R&D Systems Inc. MN) and 500 U/mL IL-4 (R&D Systems Inc. MN) for 7 days such as described in Keogh et al. (30).
DC were then maturated for 2 days with 2 μg/mL anti-CD40 antibody and 100 ng/mL Poly I:C (Sigma-Aldrich). […] Autologous CD8+ purified T-cells (CD8 MicroBeads, Miltneyi Biotec Inc. CA) were stimulated weekly with DC pulsed for two hours with peptide (10 μM) and irradiated at 35Gy at a T:DC ratio of 10:1 in culture medium (CM; RPMI 1640 supplemented with 10% human AB serum, […] L-glutamine and gentamycin). 1×10^3 U/mL IL-6 and SU/mL IL-12 (R&D Systems Inc. MN) were added during the first week of culture. 20 U/mL clinical grade IL-2 (Proleukin, Chiron Corp.) and 10 ng/mL IL-7 (R&D Systems Inc. MN) were added during the next two weeks of culture. 7 days after the last stimulation with DC, peptide specific IFN-γ secreting CD8+ T cells were magnetically sorted following encounter of the peptide presented by HLA-A*0201+ B-EBV cells (IFN-γ Secretion Assay, Miltenyi Biotec Inc. CA). The characterization of peptide-specific T cells was tested 7 days after the purification step.
Intracellular IFN-g Staining. 5×10^4 T cells were incubated with 10^5 stimulating peptide loaded EBV-B cells or with 10^5 tumor cells in the presence of 20 μg/ml brefeldin-A (Sigma, Oakville, Canada). Six hours later, they were washed, stained with r-phycoerythrin-conjugated anti-CD8 antibody (Caltag Laboratories, Burlingame, Calif.) in PBS for 25 min at 4° C., washed and fixed with 4% PFA. Then, cells were permeabilized with PBS 0.5% BSA 0.2% saponin (Sigma, Oakville, Canada), and stained with allophycocyanin-conjugated anti-IFNg mAb (PharMingen, Mississauga, Canada) for 25 min at 4° C. Cells were analyzed on FACSCalibur (Becton Dickinson, Mountain View, Calif.).

| Sequence | Stability (hrs) [1] [h hrs] | induction of specific human CTL (human CD8+ cells) |
| --- | --- | --- |
| LLLLDVAPL [HSP 391] | >6 | capable of stimulating specific human CTL |
| LMGDKSENV [HSP 380] | 4 | capable of stimulating specific human CTL |
| YLGYPVTNAV [HSP 134(10)] |  | capable of stimulating specific human CTL |
